Assay: Ames assay (genotoxicity)
Type: cell-based
Conditions: synthetic intermediates of the last three steps

SMILES	Ames assay result
NC(=O)Nc1ccc(CCN2C(=O)CO[C@@H]2c2cn(-c3ccc(Br)cc3)nc2-c2ccc(F)cc2)cc1I [Compound 9]	negative
NC(=O)Nc1ccc(CCN2C(=O)CO[C@@H]2c2cn(-c3ccc(Br)cc3)nc2-c2ccc(F)cc2)cc1 [Compound 17]	negative

From US12709610B2, “Preparation method for hepatitis B virus nucleocapsid inhibitor” (Shanghai Zhimeng Biopharma, Inc., priority 2021, dated 2026)
